{"source": "patent US8207159B2", "about": "“Use of galanthamine for the treatment of pathological manifestations of the central nervous system based on intoxications with psychotropic substances” (priority 2001, dated 2012)", "key": {"rats": {"system": "rats", "assay": "Animal experiments: administration of galanthamine to rats, cognitive abilities", "type": "in vivo, rat", "conditions": "restoration did not occur, or occurred only considerably later, in untreated control animals", "description": "(§1) A further advantage in this connexion is in particular that better control over the addictive behaviour is made possible, so that the risk of relapse is reduced."}, "[1]": {"system": "chronically dependent alcoholics", "assay": "Clinical studies on chronically dependent alcoholics, cognitive performance", "type": "in vivo, human", "description": "as §1"}}, "data": [{"smiles": "COc1ccc2c3c1O[C@H]1C[C@@H](O)C=C[C@@]31CCN(C)C2", "note": "[galanthamine, 4a,5,9,10,11,12-hexahydro-3-methoxy-11-methyl-6-H-benzofuro-(3a,3,2-ef)-(2)-benzazepin-6-ol]", "values": [{"measurement": "recovery of cognitive abilities", "setting": "rats", "result": "recovery of cognitive abilities"}, {"measurement": "cognitive performance of the subjects", "setting": "[1]", "result": "general improvement in the cognitive performance"}]}]}
